# According to ChEMBL document CHEMBL1201861, “Genomics of Drug Sensitity in Cancer screening data, Wellcome Trust Sanger Institute”:
# Experiments:
# Experiment in all cases: cells
# CGTH-W-1 = type: functional, cell-based, Homo sapiens; conditions: Homo sapiens, CGTH-W-1;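 note: growth inhibition of human CGTH-W-1 cells measured by cell viability assay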
# Description: SANGER: Inhibition of human CGTH-W-1 cell growth in a cell viability assay.
# NCI-H446 = type: functional, cell-based, Homo sapiens; conditions: Homo sapiens, NCI-H446;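 note: growth inhibition of NCI-H446 cells determined by a cell viability assay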
# Description: SANGER: Inhibition of human NCI-H446 cell growth in a cell viability assay.
# ES7 = type: functional, cell-based, Homo sapiens; conditions: Homo sapiens, ES7;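 note: growth inhibition of cultured human ES7 cells, read out as cell viability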
# Description: SANGER: Inhibition of human ES7 cell growth in a cell viability assay.
# SNU-C2B = type: functional, cell-based; conditions: Homo sapiens;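 note: cell viability readout used to measure compound-driven suppression of SNU-C2B cell proliferation, IC50 marking half-maximal growth inhibition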
# Description: SANGER: Inhibition of human SNU-C2B cell growth in a cell viability assay.
# KM12 = type: functional, cell-based, Homo sapiens; conditions: Homo sapiens, KM12;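 note: KM12 cell growth inhibition, read out with a cell viability assay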
# Description: SANGER: Inhibition of human KM12 cell growth in a cell viability assay.
# COLO-684 = type: functional, cell-based, Homo sapiens; conditions: Homo sapiens, COLO-684
# Description: SANGER: Inhibition of human COLO-684 cell growth in a cell viability assay.
# AM-38 = type: functional, cell-based, Homo sapiens; conditions: Homo sapiens, AM-38;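 note: growth inhibition of AM-38 cells of human origin, read out by a cell viability assay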
# Description: SANGER: Inhibition of human AM-38 cell growth in a cell viability assay.
# IST-MEL1 = type: functional, cell-based, Homo sapiens; conditions: Homo sapiens, IST-MEL1;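 note: growth inhibition of the cell line, read out with a cell viability assay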
# Description: SANGER: Inhibition of human IST-MEL1 cell growth in a cell viability assay.
# HL-60 = type: functional, cell-based, Homo sapiens; conditions: Homo sapiens, HL-60;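 note: growth inhibition of human HL-60 cells, read out with a cell viability assay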
# Description: SANGER: Inhibition of human HL-60 cell growth in a cell viability assay.
# RPMI-8226 = type: functional, cell-based, Homo sapiens; conditions: Homo sapiens, RPMI-8226
# Description: SANGER: Inhibition of human RPMI-8226 cell growth in a cell viability assay.
# KINGS-1 = type: functional, cell-based, Homo sapiens; conditions: Homo sapiens, KINGS-1;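 note: cell viability assay measuring suppression of KINGS-1 cell growth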
# Description: SANGER: Inhibition of human KINGS-1 cell growth in a cell viability assay.
# NCI-H1155 = type: functional, cell-based, Homo sapiens; conditions: Homo sapiens, NCI-H1155;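 note: cell growth inhibition measured by a viability assay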
# Description: SANGER: Inhibition of human NCI-H1155 cell growth in a cell viability assay.
# GT3TKB = type: functional, cell-based, Homo sapiens; conditions: Homo sapiens, GT3TKB;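 note: growth inhibition of the cell line, read out with a cell viability assay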
# Description: SANGER: Inhibition of human GT3TKB cell growth in a cell viability assay.
# NCI-H1650 = type: functional, cell-based, Homo sapiens; conditions: Homo sapiens, NCI-H1650;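 note: growth inhibition of human NCI-H1650 cells measured by a cell viability assay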
# Description: SANGER: Inhibition of human NCI-H1650 cell growth in a cell viability assay.
# KALS-1 = type: functional, cell-based, Homo sapiens; conditions: Homo sapiens, KALS-1; read-out: IC50;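 note: growth inhibition of KALS-1 cells, determined with a cell viability assay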
# Description: SANGER: Inhibition of human KALS-1 cell growth in a cell viability assay.
# NOMO-1 = type: functional, cell-based, Homo sapiens; conditions: Homo sapiens, NOMO-1;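 note: growth inhibition of human NOMO-1 cells measured by a cell viability assay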
# Description: SANGER: Inhibition of human NOMO-1 cell growth in a cell viability assay.
# D-263MG = type: functional, cell-based, Homo sapiens; conditions: Homo sapiens, D-263MG
# Description: SANGER: Inhibition of human D-263MG cell growth in a cell viability assay.
# KARPAS-45 = type: functional, cell-based, Homo sapiens; conditions: Homo sapiens, KARPAS-45;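 note: inhibition of cell line growth, read out through a viability assay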
# Description: SANGER: Inhibition of human KARPAS-45 cell growth in a cell viability assay.
# C2BBe1 = type: functional, cell-based, Homo sapiens; conditions: Homo sapiens, C2BBe1;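 note: growth inhibition of C2BBe1 cells, read out through a viability assay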
# Description: SANGER: Inhibition of human C2BBe1 cell growth in a cell viability assay.
# EW-18 = type: functional, cell-based, Homo sapiens; conditions: Homo sapiens, EW-18; read-out: IC50;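 note: growth inhibition of EW-18 cells, read out by a cell viability assay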
# Description: SANGER: Inhibition of human EW-18 cell growth in a cell viability assay.
# PSN1 = type: functional, cell-based, Homo sapiens; conditions: Homo sapiens, PSN1;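 note: suppression of growth of human PSN1 cells, read out by a cell viability assay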
# Description: SANGER: Inhibition of human PSN1 cell growth in a cell viability assay.
# LS-1034 = type: functional, cell-based, Homo sapiens; conditions: Homo sapiens, LS-1034
# Description: SANGER: Inhibition of human LS-1034 cell growth in a cell viability assay.
# SK-N-FI = type: functional, cell-based, Homo sapiens; conditions: Homo sapiens, SK-N-FI;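 note: cell viability assay measuring growth inhibition of human SK-N-FI cells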
# Description: SANGER: Inhibition of human SK-N-FI cell growth in a cell viability assay.
# NCI-H226 = type: functional, cell-based, Homo sapiens; conditions: Homo sapiens, NCI-H226;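 note: cell viability read-out used to gauge growth inhibition of the cells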
# Description: SANGER: Inhibition of human NCI-H226 cell growth in a cell viability assay.
# Mo = type: functional, cell-based, Homo sapiens; conditions: Homo sapiens, Mo
# Description: SANGER: Inhibition of human Mo-T cell growth in a cell viability assay.
# KM-H2 = type: functional, cell-based, Homo sapiens; conditions: Homo sapiens, KM-H2;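 note: growth inhibition of KM-H2 cells, read out by a cell viability assay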
# Description: SANGER: Inhibition of human KM-H2 cell growth in a cell viability assay.
# SBC-1 = type: functional, cell-based, Homo sapiens; conditions: Homo sapiens, SBC-1;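 note: cell viability assay measuring growth inhibition of the SBC-1 cell line, IC50 being the concentration that halves growth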
# Description: SANGER: Inhibition of human SBC-1 cell growth in a cell viability assay.
# LB2241-RCC = type: functional, cell-based, Homo sapiens; conditions: Homo sapiens, LB2241-RCC;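 note: cell viability assay measuring how strongly the cultured human renal carcinoma line is prevented from growing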
# Description: SANGER: Inhibition of human LB2241-RCC cell growth in a cell viability assay.
# HOP-62 = type: functional, cell-based, Homo sapiens; conditions: Homo sapiens, HOP-62;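 note: cell growth inhibition determined with a viability assay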
# Description: SANGER: Inhibition of human HOP-62 cell growth in a cell viability assay.
# A4-Fuk = type: functional, cell-based, Homo sapiens; conditions: Homo sapiens, A4-Fuk;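 note: growth inhibition of A4-Fuk cells, read out by a cell viability assay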
# Description: SANGER: Inhibition of human A4-Fuk cell growth in a cell viability assay.
# DSH1 = type: functional, cell-based; conditions: Homo sapiens;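 note: growth inhibition of human DSH1 cells, measured with a cell viability readout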
# Description: SANGER: Inhibition of human DSH1 cell growth in a cell viability assay.
# SW 954 = type: functional, cell-based, Homo sapiens; conditions: Homo sapiens, SW 954;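 note: growth inhibition of SW954 human cancer cells, read out as cell viability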
# Description: SANGER: Inhibition of human SW954 cell growth in a cell viability assay.
# RH-1 = type: functional, cell-based, Homo sapiens; conditions: Homo sapiens, RH-1;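 note: growth inhibition of human RH-1 cells, read out with a cell viability assay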
# Description: SANGER: Inhibition of human RH-1 cell growth in a cell viability assay.
# NB69 = type: functional, cell-based, Homo sapiens; conditions: Homo sapiens, NB69;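 note: growth inhibition of NB69 cells, determined by a cell viability assay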
# Description: SANGER: Inhibition of human NB69 cell growth in a cell viability assay.
# GOTO = type: functional, cell-based, Homo sapiens; conditions: Homo sapiens, GOTO;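 note: growth inhibition of GOTO cells, read out by a cell viability assay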
# Description: SANGER: Inhibition of human GOTO cell growth in a cell viability assay.
# OVCAR-4 = type: functional, cell-based, Homo sapiens; conditions: Homo sapiens, OVCAR-4;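 note: growth inhibition of human OVCAR-4 cells, measured with a cell viability assay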
# Description: SANGER: Inhibition of human OVCAR-4 cell growth in a cell viability assay.
# SF-268 = type: functional, cell-based, Homo sapiens; conditions: Homo sapiens, SF-268;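 note: growth inhibition of SF-268 cells determined with a cell viability assay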
# Description: SANGER: Inhibition of human SF268 cell growth in a cell viability assay.
# TGBC1TKB = type: functional, cell-based, Homo sapiens; conditions: Homo sapiens, TGBC1TKB;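 note: growth inhibition of TGBC1TKB cells, read out by a cell viability assay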
# Description: SANGER: Inhibition of human TGBC1TKB cell growth in a cell viability assay.
# SK-N-DZ = type: functional, cell-based, Homo sapiens; conditions: Homo sapiens, SK-N-DZ; read-out: IC50;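 note: growth inhibition of the cancer cell line, read out through a viability assay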
# Description: SANGER: Inhibition of human SK-N-DZ cell growth in a cell viability assay.
# MLMA = type: functional, cell-based, Homo sapiens; conditions: Homo sapiens, MLMA;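 note: growth inhibition of MLMA cells (human), determined through a cell viability readout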
# Description: SANGER: Inhibition of human MLMA cell growth in a cell viability assay.
# ES1 = type: functional, cell-based, Homo sapiens; conditions: Homo sapiens, ES1;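 note: growth inhibition of ES1 cells, read out with a cell viability assay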
# Description: SANGER: Inhibition of human ES1 cell growth in a cell viability assay.
# IA-LM = type: functional, cell-based; conditions: Homo sapiens;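 note: cell viability assay measuring growth inhibition of human IA-LM cells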
# Description: SANGER: Inhibition of human IA-LM cell growth in a cell viability assay.
# LXF-289 cell line = type: functional, cell-based; conditions: Homo sapiens
# Description: SANGER: Inhibition of human LXF-289 cell growth in a cell viability assay.
# NCI-H1648 = type: functional, cell-based, Homo sapiens; conditions: Homo sapiens, NCI-H1648;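 note: cell viability assay measuring inhibition of NCI-H1648 cell growth, from the Sanger screening data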
# Description: SANGER: Inhibition of human NCI-H1648 cell growth in a cell viability assay.
# OS-RC-2 = type: functional, cell-based, Homo sapiens; conditions: Homo sapiens, OS-RC-2;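 note: growth inhibition of human OS-RC-2 cells, measured by a cell viability assay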
# Description: SANGER: Inhibition of human OS-RC-2 cell growth in a cell viability assay.
# ES3 = type: functional, cell-based, Homo sapiens; conditions: Homo sapiens, ES3;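 note: growth inhibition of ES3 cells, read out with a cell viability assay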
# Description: SANGER: Inhibition of human ES3 cell growth in a cell viability assay.
# EW-16 = type: functional, cell-based, Homo sapiens; conditions: Homo sapiens, EW-16;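 note: growth inhibition of human EW-16 cells, read out as cell viability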
# Description: SANGER: Inhibition of human EW-16 cell growth in a cell viability assay.
# SW982 = type: functional, cell-based; conditions: Homo sapiens;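 note: growth inhibition of SW982 cells, read out with a cell viability assay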
# Description: SANGER: Inhibition of human SW982 cell growth in a cell viability assay.
# LB2518-MEL = type: functional, cell-based; conditions: Homo sapiens;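 note: growth inhibition of human LB2518-MEL cells, measured with a cell viability assay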
# Description: SANGER: Inhibition of human LB2518-MEL cell growth in a cell viability assay.
# KNS-81-FD = type: functional, cell-based, Homo sapiens; conditions: Homo sapiens, KNS-81-FD;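 note: growth inhibition of KNS-81-FD cells, read out with a cell viability assay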
# Description: SANGER: Inhibition of human KNS-81-FD cell growth in a cell viability assay.
structure (smiles),measurement,setting,value
Cc1ccc(-n2nc(C(C)(C)C)cc2NC(=O)Nc2ccc(OCCN3CCOCC3)c3ccccc23)cc1 [DORAMAPIMOD],IC50,CGTH-W-1,> 10 µM
same,IC50,NCI-H446,> 10 µM
same,IC50,ES7,> 10 µM
same,IC50,SNU-C2B,> 10 µM
same,IC50,KM12,> 10 µM
same,IC50,COLO-684,> 10 µM
same,IC50,AM-38,> 10 µM
same,IC50,IST-MEL1,> 10 µM
same,IC50,HL-60,> 10 µM
same,IC50,RPMI-8226,> 10 µM
same,IC50,KINGS-1,> 10 µM
same,IC50,NCI-H1155,> 10 µM
same,IC50,GT3TKB,> 10 µM
same,IC50,NCI-H1650,> 10 µM
same,IC50,KALS-1,> 10 µM
same,IC50,NOMO-1,> 10 µM
same,IC50,D-263MG,> 10 µM
same,IC50,KARPAS-45,> 10 µM
same,IC50,C2BBe1,> 10 µM
same,IC50,EW-18,> 10 µM
same,IC50,PSN1,> 10 µM
same,IC50,LS-1034,> 10 µM
same,IC50,SK-N-FI,> 10 µM
same,IC50,NCI-H226,> 10 µM
same,IC50,Mo,> 10 µM
same,IC50,KM-H2,> 10 µM
same,IC50,SBC-1,> 10 µM
same,IC50,LB2241-RCC,> 10 µM
same,IC50,HOP-62,> 10 µM
same,IC50,A4-Fuk,> 10 µM
same,IC50,DSH1,> 10 µM
same,IC50,SW 954,> 10 µM
same,IC50,RH-1,> 10 µM
same,IC50,NB69,> 10 µM
same,IC50,GOTO,6.39 µM
same,IC50,OVCAR-4,> 10 µM
same,IC50,SF-268,> 10 µM
same,IC50,TGBC1TKB,> 10 µM
same,IC50,SK-N-DZ,> 10 µM
same,IC50,MLMA,> 10 µM
same,IC50,ES1,> 10 µM
same,IC50,IA-LM,> 10 µM
same,IC50,LXF-289 cell line,> 10 µM
same,IC50,NCI-H1648,> 10 µM
same,IC50,OS-RC-2,> 10 µM
same,IC50,ES3,> 10 µM
same,IC50,EW-16,> 10 µM
same,IC50,SW982,> 10 µM
same,IC50,LB2518-MEL,> 10 µM
same,IC50,KNS-81-FD,> 10 µM
CN(NC(=O)CC(=O)NN(C)C(=S)c1ccccc1)C(=S)c1ccccc1 [ELESCLOMOL],IC50,CGTH-W-1,0.011 µM
same,IC50,NCI-H446,0.0901 µM
same,IC50,ES7,0.00359 µM
same,IC50,SNU-C2B,> 0.2 µM
same,IC50,KM12,> 0.2 µM
same,IC50,COLO-684,0.00921 µM
same,IC50,AM-38,0.169 µM
same,IC50,IST-MEL1,0.0113 µM
same,IC50,HL-60,0.0668 µM
same,IC50,RPMI-8226,0.046 µM
same,IC50,KINGS-1,0.177 µM
same,IC50,NCI-H1155,0.0462 µM
same,IC50,GT3TKB,0.016 µM
same,IC50,NCI-H1650,0.0304 µM
same,IC50,KALS-1,0.0963 µM
same,IC50,NOMO-1,> 0.2 µM
same,IC50,D-263MG,> 0.2 µM
same,IC50,KARPAS-45,> 0.2 µM
same,IC50,C2BBe1,0.103 µM
same,IC50,EW-18,> 0.2 µM
same,IC50,PSN1,0.00384 µM
same,IC50,LS-1034,> 0.2 µM
same,IC50,SK-N-FI,0.0815 µM
same,IC50,NCI-H226,0.131 µM
same,IC50,Mo,> 0.2 µM
same,IC50,KM-H2,> 0.2 µM
same,IC50,SBC-1,0.0351 µM
same,IC50,LB2241-RCC,0.0564 µM
same,IC50,HOP-62,0.122 µM
same,IC50,A4-Fuk,0.108 µM
same,IC50,DSH1,0.0233 µM
same,IC50,SW 954,0.0142 µM
same,IC50,RH-1,0.0582 µM
same,IC50,NB69,0.00122 µM
same,IC50,GOTO,0.0187 µM
same,IC50,OVCAR-4,0.00587 µM
same,IC50,SF-268,0.0129 µM
same,IC50,TGBC1TKB,0.0333 µM
same,IC50,SK-N-DZ,0.189 µM
same,IC50,MLMA,0.0136 µM
same,IC50,ES1,0.000749 µM
same,IC50,IA-LM,0.0844 µM
same,IC50,LXF-289 cell line,0.014 µM
same,IC50,NCI-H1648,> 0.2 µM
same,IC50,OS-RC-2,0.0477 µM
same,IC50,ES3,0.00579 µM
same,IC50,EW-16,0.00161 µM
same,IC50,SW982,0.00744 µM
same,IC50,LB2518-MEL,0.0669 µM
same,IC50,KNS-81-FD,0.0175 µM
CCCCCCCCCCCC1=C(O)C(=O)C=C(O)C1=O [EMBELIN],IC50,CGTH-W-1,16.8 µM
same,IC50,NCI-H446,> 32 µM
same,IC50,ES7,6.6 µM
same,IC50,SNU-C2B,> 32 µM
same,IC50,KM12,13.5 µM
same,IC50,COLO-684,20.6 µM
same,IC50,AM-38,12.5 µM
same,IC50,IST-MEL1,7.9 µM
same,IC50,HL-60,8.85 µM
same,IC50,RPMI-8226,13.7 µM
same,IC50,KINGS-1,> 32 µM
same,IC50,NCI-H1155,> 32 µM
same,IC50,GT3TKB,3.62 µM
same,IC50,NCI-H1650,20.8 µM
same,IC50,KALS-1,14.9 µM
same,IC50,NOMO-1,12.3 µM
same,IC50,D-263MG,> 32 µM
same,IC50,KARPAS-45,15.6 µM
same,IC50,C2BBe1,13.9 µM
same,IC50,EW-18,10.5 µM
same,IC50,PSN1,5.41 µM
same,IC50,LS-1034,> 32 µM
same,IC50,SK-N-FI,> 32 µM
same,IC50,NCI-H226,17.9 µM
same,IC50,Mo,> 32 µM
same,IC50,KM-H2,26.5 µM
same,IC50,SBC-1,28.5 µM
same,IC50,LB2241-RCC,> 32 µM
same,IC50,HOP-62,5.69 µM
same,IC50,A4-Fuk,> 32 µM
same,IC50,DSH1,> 32 µM
same,IC50,SW 954,31.1 µM
same,IC50,RH-1,13.3 µM
same,IC50,NB69,> 32 µM
same,IC50,GOTO,23.6 µM
same,IC50,OVCAR-4,12.3 µM
same,IC50,SF-268,7.9 µM
same,IC50,TGBC1TKB,11 µM
same,IC50,SK-N-DZ,> 32 µM
same,IC50,MLMA,> 32 µM
same,IC50,ES1,7.81 µM
same,IC50,IA-LM,2.23 µM
same,IC50,LXF-289 cell line,9 µM
same,IC50,NCI-H1648,9.3 µM
same,IC50,OS-RC-2,9.34 µM
same,IC50,ES3,15.4 µM
same,IC50,EW-16,4.27 µM
same,IC50,SW982,7.34 µM
same,IC50,LB2518-MEL,> 32 µM
same,IC50,KNS-81-FD,19.5 µM
